What all share (experiment): biochemical
One experiment deals with CDK3/cyclin E1 (Homo sapiens, UniProt Q00526). Details: SelectScreen LanthaScreen kinase binding assay, per cent tracer displacement, mean of two points. The conditions noted are these: tracer displacement.
In a further experiment the target is KIT V559D T670I (Homo sapiens, UniProt P10721, T670I/V559D). Details: SelectScreen LanthaScreen kinase binding assay, per cent tracer displacement, mean of two points. The conditions noted are these: tracer displacement.
The next experiment addresses T1, TGFBR1 (ALK5) (Homo sapiens, UniProt P36897).
T1 sequence (P36897 1-503): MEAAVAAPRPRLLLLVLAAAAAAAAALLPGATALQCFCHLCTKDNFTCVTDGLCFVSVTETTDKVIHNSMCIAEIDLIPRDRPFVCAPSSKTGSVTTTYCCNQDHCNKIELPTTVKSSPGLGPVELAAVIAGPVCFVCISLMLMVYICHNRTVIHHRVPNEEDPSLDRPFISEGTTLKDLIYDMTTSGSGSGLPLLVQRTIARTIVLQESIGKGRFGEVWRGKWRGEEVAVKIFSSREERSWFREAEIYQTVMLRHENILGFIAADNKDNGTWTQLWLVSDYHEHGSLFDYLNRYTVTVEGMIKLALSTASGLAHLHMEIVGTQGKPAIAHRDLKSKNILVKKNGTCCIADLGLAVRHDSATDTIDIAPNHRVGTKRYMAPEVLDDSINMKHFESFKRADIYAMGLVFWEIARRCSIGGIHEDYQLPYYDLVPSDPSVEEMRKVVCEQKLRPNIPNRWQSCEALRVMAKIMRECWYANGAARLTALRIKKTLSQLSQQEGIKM
Details: SelectScreen LanthaScreen kinase binding assay, per cent tracer displacement, mean of two points. The conditions noted are these: tracer displacement.

In the next experiment the target is T2, ULK2 (Homo sapiens, UniProt Q8IYT8).
T2 sequence (Q8IYT8 1-1036): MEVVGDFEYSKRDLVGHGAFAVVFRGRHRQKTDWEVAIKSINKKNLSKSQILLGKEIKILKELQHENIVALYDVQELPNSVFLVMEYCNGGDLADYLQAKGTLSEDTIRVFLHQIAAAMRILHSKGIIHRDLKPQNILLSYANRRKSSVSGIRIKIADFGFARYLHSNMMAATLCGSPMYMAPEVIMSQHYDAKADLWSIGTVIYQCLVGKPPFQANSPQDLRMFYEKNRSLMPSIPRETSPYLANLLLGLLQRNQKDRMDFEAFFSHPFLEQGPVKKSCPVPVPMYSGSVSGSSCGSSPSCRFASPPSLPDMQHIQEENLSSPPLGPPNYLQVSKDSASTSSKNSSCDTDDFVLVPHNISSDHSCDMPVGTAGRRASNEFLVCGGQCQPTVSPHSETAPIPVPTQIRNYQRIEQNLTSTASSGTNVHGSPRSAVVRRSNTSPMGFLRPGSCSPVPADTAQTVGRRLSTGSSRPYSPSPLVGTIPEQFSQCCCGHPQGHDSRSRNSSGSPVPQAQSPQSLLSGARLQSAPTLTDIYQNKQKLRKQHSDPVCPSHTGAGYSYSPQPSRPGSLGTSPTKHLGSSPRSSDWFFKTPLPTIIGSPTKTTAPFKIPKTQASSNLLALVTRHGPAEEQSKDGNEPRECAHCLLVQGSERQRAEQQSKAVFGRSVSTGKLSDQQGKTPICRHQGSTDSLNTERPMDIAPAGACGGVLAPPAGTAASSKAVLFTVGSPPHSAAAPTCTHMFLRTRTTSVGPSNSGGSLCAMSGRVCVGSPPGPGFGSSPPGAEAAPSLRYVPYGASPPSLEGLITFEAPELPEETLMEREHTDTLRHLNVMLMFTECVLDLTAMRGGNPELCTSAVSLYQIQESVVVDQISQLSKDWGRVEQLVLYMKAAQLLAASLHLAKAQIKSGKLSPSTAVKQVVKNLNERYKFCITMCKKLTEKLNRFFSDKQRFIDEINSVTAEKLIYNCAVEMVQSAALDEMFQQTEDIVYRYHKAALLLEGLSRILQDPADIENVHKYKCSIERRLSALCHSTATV
Also noted: SelectScreen LanthaScreen kinase binding assay, per cent tracer displacement, mean of two points. The conditions noted are these: tracer displacement.

Another experiment concerns the target T3, VPS34 complex II (Homo sapiens, UniProt Q8NEB9).
T3 construct: gene PIK3C3
Also noted: Lipid kinase activity assay on purified class I PI3K or VPS34 complex II, 10 uM ATP. The method, then:
Extended Data Fig. 2 Lipid kinase inhibitor profile of PITCOIN1-3. (a–c) Selectivity profiling of PITCOIN1-3 (1 µM) with purified lipid kinases in the presence of 10 µM ATP. […] Data are presented as mean ± SD from two independent experiments. (d, e) IC50 measurements of PITCOIN1-3 against purified recombinant class I PI3K p110α/p85α (d) or purified class III PI3K VPS34 complex II (e). 10 µM ATP and 20 µM PIP3 (for p110α/p85α) or 200 µM PI (for VPS34 complex II) were used as substrates. […] Data are presented as mean ± SD from two independent experiments. Source data

The values that follow come from paper PMC7613998, “Development of selective inhibitors of phosphatidylinositol 3-kinase C2α” (Nature Chemical Biology, 2022).

Where two headings read alike, the source gives them in different places.

Sequence of CDK3/cyclin E1 (Q00526 whole entry): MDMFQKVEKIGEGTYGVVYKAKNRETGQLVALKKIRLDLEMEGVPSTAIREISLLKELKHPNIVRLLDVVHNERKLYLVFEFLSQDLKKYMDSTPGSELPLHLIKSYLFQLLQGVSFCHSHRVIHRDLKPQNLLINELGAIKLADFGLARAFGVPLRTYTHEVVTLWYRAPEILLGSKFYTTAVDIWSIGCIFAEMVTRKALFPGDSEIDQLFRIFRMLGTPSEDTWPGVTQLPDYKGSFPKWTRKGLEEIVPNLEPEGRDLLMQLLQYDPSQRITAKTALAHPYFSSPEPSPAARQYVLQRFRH
Sequence of CDK3/cyclin E1 (P24864 whole entry partner): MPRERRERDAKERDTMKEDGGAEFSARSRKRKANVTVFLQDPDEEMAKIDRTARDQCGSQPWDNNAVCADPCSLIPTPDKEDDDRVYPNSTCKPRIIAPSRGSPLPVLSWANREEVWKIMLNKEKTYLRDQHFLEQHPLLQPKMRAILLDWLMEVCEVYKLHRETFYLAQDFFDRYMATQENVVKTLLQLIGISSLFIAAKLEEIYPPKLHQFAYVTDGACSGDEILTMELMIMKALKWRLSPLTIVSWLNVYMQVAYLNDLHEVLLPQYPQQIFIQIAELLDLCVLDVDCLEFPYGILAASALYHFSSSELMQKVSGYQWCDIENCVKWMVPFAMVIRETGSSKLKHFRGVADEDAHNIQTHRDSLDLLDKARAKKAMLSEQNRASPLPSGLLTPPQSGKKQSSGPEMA
T3 sequence (Q8NEB9 whole entry): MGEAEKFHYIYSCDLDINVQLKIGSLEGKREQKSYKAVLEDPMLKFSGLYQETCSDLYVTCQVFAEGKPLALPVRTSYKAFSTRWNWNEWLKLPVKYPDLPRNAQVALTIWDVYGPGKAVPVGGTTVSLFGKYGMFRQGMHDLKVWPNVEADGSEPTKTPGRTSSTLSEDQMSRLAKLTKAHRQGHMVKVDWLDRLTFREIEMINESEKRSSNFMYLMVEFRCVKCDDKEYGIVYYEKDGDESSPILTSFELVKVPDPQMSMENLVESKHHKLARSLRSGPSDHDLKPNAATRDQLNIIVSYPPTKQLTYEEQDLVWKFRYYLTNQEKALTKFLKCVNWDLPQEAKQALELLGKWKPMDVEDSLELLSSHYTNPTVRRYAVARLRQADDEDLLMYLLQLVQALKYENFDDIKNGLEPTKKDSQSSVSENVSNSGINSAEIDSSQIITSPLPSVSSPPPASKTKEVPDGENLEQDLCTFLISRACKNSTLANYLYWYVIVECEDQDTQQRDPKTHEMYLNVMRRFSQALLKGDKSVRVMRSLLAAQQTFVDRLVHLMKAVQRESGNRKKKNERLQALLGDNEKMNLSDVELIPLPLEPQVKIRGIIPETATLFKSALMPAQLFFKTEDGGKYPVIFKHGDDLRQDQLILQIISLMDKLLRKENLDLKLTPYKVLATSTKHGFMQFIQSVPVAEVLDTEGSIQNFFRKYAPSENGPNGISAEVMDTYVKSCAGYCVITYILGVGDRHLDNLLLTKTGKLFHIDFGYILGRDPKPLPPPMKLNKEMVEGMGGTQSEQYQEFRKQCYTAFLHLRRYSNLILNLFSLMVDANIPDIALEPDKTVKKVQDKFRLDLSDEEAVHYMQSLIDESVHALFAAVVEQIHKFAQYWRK
T3 sequence (Q14457 whole entry partner): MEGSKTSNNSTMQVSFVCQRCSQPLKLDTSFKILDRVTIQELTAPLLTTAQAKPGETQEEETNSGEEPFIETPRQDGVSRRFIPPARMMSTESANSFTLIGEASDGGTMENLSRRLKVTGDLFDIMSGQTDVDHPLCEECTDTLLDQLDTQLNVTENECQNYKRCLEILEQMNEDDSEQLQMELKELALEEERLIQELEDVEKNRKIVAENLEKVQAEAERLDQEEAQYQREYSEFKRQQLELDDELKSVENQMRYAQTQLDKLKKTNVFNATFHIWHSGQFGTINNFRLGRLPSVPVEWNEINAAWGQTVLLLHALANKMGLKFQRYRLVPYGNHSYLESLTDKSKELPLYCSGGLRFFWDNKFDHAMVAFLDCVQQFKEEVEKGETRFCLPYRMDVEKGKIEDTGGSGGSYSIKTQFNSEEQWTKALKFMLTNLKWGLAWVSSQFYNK
T3 sequence (Q99570 whole entry partner): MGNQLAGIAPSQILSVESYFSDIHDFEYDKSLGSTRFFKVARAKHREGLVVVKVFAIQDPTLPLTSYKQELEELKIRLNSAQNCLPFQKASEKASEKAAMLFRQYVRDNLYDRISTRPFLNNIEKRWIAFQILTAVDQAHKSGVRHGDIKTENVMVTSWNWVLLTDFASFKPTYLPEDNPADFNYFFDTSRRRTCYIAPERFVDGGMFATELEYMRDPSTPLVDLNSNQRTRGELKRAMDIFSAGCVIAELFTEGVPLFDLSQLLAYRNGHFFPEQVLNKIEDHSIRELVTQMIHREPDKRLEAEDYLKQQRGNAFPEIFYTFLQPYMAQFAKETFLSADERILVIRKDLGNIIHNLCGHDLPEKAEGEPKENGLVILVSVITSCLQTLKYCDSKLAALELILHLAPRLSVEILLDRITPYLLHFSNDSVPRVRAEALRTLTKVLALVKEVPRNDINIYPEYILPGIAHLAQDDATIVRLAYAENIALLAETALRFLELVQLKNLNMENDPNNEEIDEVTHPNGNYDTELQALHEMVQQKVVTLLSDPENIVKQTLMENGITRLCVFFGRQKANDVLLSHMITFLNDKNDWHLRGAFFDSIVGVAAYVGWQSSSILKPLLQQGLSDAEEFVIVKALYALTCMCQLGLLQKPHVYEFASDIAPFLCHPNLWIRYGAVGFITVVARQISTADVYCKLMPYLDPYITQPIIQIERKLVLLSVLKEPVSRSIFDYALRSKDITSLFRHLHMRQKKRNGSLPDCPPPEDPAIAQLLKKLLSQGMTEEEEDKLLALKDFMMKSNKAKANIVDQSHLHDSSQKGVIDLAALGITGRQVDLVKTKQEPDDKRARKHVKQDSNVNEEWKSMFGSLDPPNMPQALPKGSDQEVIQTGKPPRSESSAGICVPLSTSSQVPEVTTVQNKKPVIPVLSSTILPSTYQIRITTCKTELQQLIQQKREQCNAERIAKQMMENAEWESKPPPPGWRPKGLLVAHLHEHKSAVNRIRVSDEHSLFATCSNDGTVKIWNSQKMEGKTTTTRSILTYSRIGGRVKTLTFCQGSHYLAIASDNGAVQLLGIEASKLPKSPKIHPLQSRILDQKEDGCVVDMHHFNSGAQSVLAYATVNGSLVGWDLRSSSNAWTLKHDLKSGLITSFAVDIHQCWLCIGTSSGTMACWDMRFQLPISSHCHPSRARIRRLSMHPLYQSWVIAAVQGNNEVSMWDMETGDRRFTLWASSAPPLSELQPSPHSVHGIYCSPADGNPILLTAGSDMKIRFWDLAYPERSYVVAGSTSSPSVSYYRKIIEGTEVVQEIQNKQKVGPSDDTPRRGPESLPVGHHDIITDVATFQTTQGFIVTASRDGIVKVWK
T3 sequence (Q9P2Y5 whole entry partner): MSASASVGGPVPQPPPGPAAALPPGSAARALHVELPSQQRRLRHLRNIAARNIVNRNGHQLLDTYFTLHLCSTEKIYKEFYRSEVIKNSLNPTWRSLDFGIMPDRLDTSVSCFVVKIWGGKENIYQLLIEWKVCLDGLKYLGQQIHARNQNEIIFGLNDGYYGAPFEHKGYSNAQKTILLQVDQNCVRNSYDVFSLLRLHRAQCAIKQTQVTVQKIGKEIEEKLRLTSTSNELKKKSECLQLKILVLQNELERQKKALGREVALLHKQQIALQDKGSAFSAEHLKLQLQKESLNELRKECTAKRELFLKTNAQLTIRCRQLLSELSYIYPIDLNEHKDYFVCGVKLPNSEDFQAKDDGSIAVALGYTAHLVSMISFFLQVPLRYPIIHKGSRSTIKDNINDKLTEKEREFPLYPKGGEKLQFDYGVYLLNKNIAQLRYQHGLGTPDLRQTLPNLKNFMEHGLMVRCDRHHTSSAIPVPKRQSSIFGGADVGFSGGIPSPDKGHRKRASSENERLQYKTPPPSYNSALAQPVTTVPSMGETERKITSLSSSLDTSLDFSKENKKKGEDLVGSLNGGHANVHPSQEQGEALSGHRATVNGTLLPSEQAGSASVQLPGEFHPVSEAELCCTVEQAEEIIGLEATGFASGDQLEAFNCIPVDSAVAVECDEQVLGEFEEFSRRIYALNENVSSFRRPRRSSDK

As for `O=C(CSc1nc2nccnc2c(=O)n1CCc1ccccc1)Nc1nccs1` [compound 1, PITCOIN1], the inhibition (usually the drop in the measured response relative to a control, in per cent) at 1 µM was -0.974% at CDK3/cyclin E1, -4.48% at KIT V559D T670I, -5.43% on TGFBR1 (ALK5) and -4.11% on ULK2. The inhibition at 3 µM is -9.41% on CDK3/cyclin E1, 0.47% on KIT V559D T670I, 9.69% at TGFBR1 (ALK5) and -4.09% on ULK2. Also, the inhibition at 10 µM on CDK3/cyclin E1 was 1.77%; on KIT V559D T670I, 6.38%; at TGFBR1 (ALK5), 5.12%; on ULK2 it was -1.99%. Moreover, the half-inhibitory concentration (IC50) (usually the concentration that gives 50% inhibition) on VPS34 complex II (read-out: PITCOIN1 (IC50)) was greater than 10 µM.

Regarding `O=C(CSc1nc2nccnc2c(=O)n1CCc1ccccc1)Nc1nc(-c2cccc(O)c2)cs1` [compound 2, PITCOIN2], the IC50 on VPS34 complex II (read-out: PITCOIN2 (IC50)) is greater than 10 µM.

On to `CS(=O)(=O)Nc1cccc(-c2csc(NC(=O)CSc3nc4nccnc4c(=O)n3CCc3ccccc3)n2)c1` [compound 3, PITCOIN3], for which the inhibition at 1 µM on CDK3/cyclin E1 was 13.1%; on KIT V559D T670I it was -12.1%; on TGFBR1 (ALK5), -4.81%; at ULK2, -2.32%. Besides, the inhibition at 3 µM at CDK3/cyclin E1 was 8.71%; at KIT V559D T670I it was 0.144%; on TGFBR1 (ALK5), 14.1%; at ULK2, -0.489%. Also, the inhibition at 10 µM at CDK3/cyclin E1 was -18.8%; on KIT V559D T670I, 1.37%; at TGFBR1 (ALK5), 1.48%; on ULK2, 2.18%. At VPS34 complex II (read-out: PITCOIN3 (IC50)), the concentration for half-maximal inhibition (IC50) is greater than 10 µM.
